Source: ChEMBL document CHEMBL3603736, “3-Substituted pyrazoles and 4-substituted triazoles as inhibitors of human 15-lipoxygenase-1” (Bioorg Med Chem Lett, 2015)
In brackets after ≈: the same amount, converted by molar mass.

What was measured:
CYP2B6 = CYP2B6 (Homo sapiens, UniProt P20813); assay: Inhibition of human CYP2B6 at 10 uM; format: ADME
Cytochrome P450 2C8 [1] = biological target: T1, Cytochrome P450 2C8 (Homo sapiens, UniProt P10632); assay: Inhibition of human CYP2C8; format: ADME
Cytochrome P450 2C8 [2] = biological target: T1, Cytochrome P450 2C8; assay: Inhibition of human CYP2C8 at 10 uM; format: ADME
Cytochrome P450 2C9 = Cytochrome P450 2C9 (Homo sapiens, UniProt P11712); assay: Inhibition of human CYP2C9; format: ADME; conditions: read-out: IC50
Cytochrome P450 2C19 = Cytochrome P450 2C19 (Homo sapiens, UniProt P33261); assay: Inhibition of human CYP2C19; format: ADME; conditions: read-out: IC50
Cytochrome P450 2D6 = Cytochrome P450 2D6 (Homo sapiens, UniProt P10635); assay: Inhibition of human CYP2D6; format: ADME
CYP2E1 = CYP2E1 (Homo sapiens, UniProt P05181); assay: Inhibition of human CYP2E1 at 10 uM; format: ADME
Cytochrome P450 3A4 = Cytochrome P450 3A4 (Homo sapiens, UniProt P08684); assay: Inhibition of human CYP3A4; format: ADME; conditions: read-out: IC50
Escherichia coli = assay: Genotoxicity in Escherichia coli by SOS/umu test; format: toxicity, organism-based
[3] = Protein binding in plasma (unknown origin); format: ADME, cell-free; conditions: read-out: PPB (converted)
[4] = biological target: Voltage-gated inwardly rectifying potassium channel KCNH2 (Homo sapiens, UniProt Q12809); assay: Inhibition of human ERG
[5] = biological target: Polyunsaturated fatty acid lipoxygenase ALOX15B (Homo sapiens, UniProt O15296); assay: Inhibition of human 15-LOX-2 expressed in Sf9 cells assessed as reduction in conversion of arachidonic acid to 15-HETE pre-incubated 5 min before arachidonic acid substrate addition by HPLC-UV spectroscopy
[6] = biological target: Polyunsaturated fatty acid lipoxygenase ALOX12 (Homo sapiens) (UniProt P18054); assay: Inhibition of human platelet 12-LOX assessed as reduction in conversion of arachidonic acid to […] at 10 uM pre-incubated 5 min before arachidonic acid substrate addition by HPLC-UV spectroscopy
[7] = biological target: Polyunsaturated fatty acid 5-lipoxygenase (Homo sapiens) (UniProt P09917); assay: Inhibition of 5-LOX in calcium ionophore and arachidonic acid-stimulated purified human granulocytes assessed as reduction in LTB4 formation at 10 uM by HPLC-UV spectroscopy
[8] = biological target: T2, Prostaglandin G/H synthase 1 (Ovis aries) (UniProt P05979); assay: Inhibition of ovine COX1 assessed as reduction in PGH2-derived PGF2alpha production at 10 uM by enzyme immunoassay
T2 sequence (whole entry): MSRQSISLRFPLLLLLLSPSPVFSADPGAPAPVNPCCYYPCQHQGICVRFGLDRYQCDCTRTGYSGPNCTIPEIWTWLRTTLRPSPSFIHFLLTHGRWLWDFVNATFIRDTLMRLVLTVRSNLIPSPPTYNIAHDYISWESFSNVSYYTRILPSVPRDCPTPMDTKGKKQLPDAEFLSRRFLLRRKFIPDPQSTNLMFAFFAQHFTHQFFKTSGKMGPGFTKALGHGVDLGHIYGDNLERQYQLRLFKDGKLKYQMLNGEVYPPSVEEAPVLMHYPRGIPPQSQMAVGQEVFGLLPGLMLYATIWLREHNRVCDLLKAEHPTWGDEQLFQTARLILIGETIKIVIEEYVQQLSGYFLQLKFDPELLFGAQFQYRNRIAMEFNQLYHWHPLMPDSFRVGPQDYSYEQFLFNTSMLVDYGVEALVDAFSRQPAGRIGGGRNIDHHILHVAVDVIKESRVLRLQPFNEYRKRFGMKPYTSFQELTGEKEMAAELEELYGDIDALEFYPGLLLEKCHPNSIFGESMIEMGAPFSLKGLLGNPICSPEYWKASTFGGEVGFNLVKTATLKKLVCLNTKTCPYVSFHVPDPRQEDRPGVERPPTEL

[9] = biological target: T3, Prostaglandin G/H synthase 2 (Homo sapiens) (UniProt P35354); assay: Inhibition of human recombinant COX2 assessed as reduction in PGH2-derived PGF2alpha production at 10 uM by enzyme immunoassay
T3 sequence (whole entry): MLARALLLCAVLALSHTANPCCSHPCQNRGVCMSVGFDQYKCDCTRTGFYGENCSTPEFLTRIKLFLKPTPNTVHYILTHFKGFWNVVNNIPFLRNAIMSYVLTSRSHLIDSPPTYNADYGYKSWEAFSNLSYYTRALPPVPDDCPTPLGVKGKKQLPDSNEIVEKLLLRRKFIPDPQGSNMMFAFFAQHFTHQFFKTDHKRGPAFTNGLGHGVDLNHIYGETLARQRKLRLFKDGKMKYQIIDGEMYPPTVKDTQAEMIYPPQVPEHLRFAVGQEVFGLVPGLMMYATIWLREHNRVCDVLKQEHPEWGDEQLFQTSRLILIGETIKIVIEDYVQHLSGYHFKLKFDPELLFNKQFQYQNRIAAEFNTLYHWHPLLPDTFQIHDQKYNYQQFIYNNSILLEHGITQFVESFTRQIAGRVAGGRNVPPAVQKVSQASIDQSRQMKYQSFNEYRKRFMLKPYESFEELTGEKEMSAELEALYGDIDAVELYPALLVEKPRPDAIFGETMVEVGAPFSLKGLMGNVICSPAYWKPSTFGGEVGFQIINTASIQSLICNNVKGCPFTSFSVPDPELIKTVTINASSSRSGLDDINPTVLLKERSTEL

[10] = biological target: Arachidonate 12-lipoxygenase (Rattus norvegicus) (UniProt Q02759); assay: (§1) Inhibition of rat 15-LOX-1 expressed in Sf9 cells assessed as reduction in conversion of arachidonic acid to 15-HETE pre-incubated 5 min before arachidonic acid substrate addition by HPLC-UV spectroscopy
[11] = biological target: Arachidonate 12-lipoxygenase (Rattus norvegicus, UniProt Q02759); assay: as §1
[12] = Inhibition of dog 15-LOX-1 expressed in Sf9 cells assessed as reduction in conversion of arachidonic acid to 15-HETE pre-incubated 5 min before arachidonic acid substrate addition by HPLC-UV spectroscopy; set-up: species or system Canis lupus familiaris
[13] = biological target: Arachidonate 12-lipoxygenase (Sus scrofa, UniProt P16469); assay: Inhibition of pig 15-LOX-1 expressed in Sf9 cells assessed as reduction in conversion of arachidonic acid to 15-HETE pre-incubated 5 min before arachidonic acid substrate addition by HPLC-UV spectroscopy
[14] = Aqueous solubility in pH 2.0 buffer; format: physicochemical
[15] = Aqueous solubility in pH 7.4 buffer; format: physicochemical
[16] = Aqueous solubility in pH 10 buffer; format: physicochemical
[17] = Half life in human microsomes; format: ADME, Microsome
[18] = Intrinsic clearance in human microsomes; format: ADME, Microsome
Caco-2 = assay: Permeability in human Caco2 cells; format: ADME, cell-based
Cytochrome P450 1A2 = Cytochrome P450 1A2 (Homo sapiens, UniProt P05177); assay: Inhibition of human CYP1A2; format: ADME

T1 sequence (P10632 whole entry): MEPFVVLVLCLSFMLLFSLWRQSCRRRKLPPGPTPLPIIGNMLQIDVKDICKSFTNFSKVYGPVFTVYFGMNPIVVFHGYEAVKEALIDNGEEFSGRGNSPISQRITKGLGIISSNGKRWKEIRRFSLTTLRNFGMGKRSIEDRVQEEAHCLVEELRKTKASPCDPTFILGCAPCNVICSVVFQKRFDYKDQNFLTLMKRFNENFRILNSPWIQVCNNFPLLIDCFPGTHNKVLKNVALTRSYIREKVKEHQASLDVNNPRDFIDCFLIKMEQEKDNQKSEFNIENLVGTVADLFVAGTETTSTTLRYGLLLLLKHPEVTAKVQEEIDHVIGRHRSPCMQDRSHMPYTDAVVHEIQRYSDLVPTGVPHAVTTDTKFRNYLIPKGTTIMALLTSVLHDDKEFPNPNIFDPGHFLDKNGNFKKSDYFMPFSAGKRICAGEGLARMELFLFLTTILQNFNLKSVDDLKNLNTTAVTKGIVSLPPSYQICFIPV
Cytochrome P450 2D6, sequence (P10635 whole entry): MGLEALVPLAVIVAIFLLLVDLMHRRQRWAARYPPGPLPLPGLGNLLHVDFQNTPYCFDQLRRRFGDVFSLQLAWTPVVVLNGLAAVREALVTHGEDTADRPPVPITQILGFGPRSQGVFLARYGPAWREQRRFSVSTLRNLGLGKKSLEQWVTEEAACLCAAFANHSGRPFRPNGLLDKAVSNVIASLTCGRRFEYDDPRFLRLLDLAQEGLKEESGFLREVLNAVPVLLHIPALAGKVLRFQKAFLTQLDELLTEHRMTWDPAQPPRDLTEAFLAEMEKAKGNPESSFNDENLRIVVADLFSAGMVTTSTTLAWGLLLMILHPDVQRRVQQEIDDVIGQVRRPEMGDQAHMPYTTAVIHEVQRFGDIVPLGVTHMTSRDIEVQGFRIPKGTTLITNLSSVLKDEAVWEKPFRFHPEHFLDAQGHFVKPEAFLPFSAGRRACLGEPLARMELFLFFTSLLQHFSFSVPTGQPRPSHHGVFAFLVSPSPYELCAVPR
Arachidonate 12-lipoxygenase (Sus scrofa, UniProt P16469), sequence (P16469 whole entry): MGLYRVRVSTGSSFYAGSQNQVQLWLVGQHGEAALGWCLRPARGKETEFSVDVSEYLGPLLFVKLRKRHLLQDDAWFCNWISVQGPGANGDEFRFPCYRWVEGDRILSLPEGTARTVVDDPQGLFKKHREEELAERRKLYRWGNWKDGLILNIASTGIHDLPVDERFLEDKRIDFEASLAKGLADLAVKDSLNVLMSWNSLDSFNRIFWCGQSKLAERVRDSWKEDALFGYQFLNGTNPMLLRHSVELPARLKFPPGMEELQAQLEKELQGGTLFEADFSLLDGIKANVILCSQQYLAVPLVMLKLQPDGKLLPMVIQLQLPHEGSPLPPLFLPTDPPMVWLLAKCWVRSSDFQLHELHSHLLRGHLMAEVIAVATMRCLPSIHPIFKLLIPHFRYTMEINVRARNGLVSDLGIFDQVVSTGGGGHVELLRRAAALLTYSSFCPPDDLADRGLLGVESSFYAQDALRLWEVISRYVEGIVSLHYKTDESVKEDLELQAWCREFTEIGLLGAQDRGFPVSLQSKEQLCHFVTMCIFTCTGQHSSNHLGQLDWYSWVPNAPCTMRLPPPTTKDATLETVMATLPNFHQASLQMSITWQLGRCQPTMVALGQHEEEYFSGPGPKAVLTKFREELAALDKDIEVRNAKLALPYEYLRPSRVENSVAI
CYP2E1, sequence (P05181 whole entry): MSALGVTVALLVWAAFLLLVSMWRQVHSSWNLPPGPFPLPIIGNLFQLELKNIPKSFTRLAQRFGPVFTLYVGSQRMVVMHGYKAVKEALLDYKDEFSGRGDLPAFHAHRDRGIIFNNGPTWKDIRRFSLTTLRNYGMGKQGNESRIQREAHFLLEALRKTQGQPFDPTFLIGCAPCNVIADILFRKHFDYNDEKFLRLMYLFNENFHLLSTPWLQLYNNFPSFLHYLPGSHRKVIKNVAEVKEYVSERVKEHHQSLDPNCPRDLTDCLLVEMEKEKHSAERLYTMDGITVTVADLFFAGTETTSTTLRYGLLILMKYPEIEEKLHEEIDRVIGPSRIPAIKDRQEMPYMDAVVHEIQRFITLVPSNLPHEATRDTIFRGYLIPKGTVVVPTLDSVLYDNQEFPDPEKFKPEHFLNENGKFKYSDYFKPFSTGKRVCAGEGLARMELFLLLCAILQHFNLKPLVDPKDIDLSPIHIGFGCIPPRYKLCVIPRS
Cytochrome P450 3A4, sequence (P08684 whole entry): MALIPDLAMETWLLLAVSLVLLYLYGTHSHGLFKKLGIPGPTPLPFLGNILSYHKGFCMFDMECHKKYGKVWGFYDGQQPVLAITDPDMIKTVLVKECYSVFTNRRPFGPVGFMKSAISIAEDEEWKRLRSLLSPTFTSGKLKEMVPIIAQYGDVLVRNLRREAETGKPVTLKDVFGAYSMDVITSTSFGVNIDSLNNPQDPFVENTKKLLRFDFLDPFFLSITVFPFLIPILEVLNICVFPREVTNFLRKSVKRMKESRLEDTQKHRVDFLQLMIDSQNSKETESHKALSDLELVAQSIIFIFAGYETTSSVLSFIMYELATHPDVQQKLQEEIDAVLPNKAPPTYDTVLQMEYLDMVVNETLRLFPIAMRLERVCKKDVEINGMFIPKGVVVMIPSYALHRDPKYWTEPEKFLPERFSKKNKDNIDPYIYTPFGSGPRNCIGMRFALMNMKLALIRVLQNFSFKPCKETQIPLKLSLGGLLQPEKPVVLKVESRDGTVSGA
Cytochrome P450 2C19, sequence (P33261 whole entry): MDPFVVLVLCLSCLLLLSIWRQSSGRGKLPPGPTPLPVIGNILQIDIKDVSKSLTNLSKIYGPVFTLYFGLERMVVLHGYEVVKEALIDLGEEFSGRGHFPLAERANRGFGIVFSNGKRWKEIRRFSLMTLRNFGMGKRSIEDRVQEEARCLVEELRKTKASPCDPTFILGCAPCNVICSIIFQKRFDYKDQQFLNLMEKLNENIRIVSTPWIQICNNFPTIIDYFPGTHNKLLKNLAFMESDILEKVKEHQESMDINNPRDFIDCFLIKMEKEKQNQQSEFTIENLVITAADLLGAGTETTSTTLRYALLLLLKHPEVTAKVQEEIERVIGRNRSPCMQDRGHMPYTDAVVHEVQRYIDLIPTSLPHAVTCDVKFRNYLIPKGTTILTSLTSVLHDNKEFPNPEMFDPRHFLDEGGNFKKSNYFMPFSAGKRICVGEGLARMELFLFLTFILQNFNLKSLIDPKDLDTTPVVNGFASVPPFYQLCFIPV
Arachidonate 12-lipoxygenase (Rattus norvegicus, UniProt Q02759), sequence (Q02759 whole entry): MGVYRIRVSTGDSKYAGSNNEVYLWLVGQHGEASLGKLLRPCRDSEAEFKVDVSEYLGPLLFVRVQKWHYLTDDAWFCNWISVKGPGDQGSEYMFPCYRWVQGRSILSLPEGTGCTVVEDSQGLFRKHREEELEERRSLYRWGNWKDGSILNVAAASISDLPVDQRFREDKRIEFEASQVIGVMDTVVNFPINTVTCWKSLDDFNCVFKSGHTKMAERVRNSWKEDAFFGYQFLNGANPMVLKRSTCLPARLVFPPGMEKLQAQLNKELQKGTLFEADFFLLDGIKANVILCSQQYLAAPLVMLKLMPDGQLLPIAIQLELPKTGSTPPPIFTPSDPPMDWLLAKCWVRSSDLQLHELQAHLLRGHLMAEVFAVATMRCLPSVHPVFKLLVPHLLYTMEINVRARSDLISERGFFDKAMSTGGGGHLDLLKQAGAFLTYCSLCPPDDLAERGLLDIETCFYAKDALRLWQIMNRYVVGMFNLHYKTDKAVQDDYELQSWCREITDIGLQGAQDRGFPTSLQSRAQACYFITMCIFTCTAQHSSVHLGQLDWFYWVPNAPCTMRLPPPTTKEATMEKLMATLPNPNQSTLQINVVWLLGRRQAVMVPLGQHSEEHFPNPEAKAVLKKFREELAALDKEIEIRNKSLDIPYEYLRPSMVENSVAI
Arachidonate 12-lipoxygenase (Rattus norvegicus), sequence (Q02759 whole entry): as above
Voltage-gated inwardly rectifying potassium channel KCNH2, sequence (Q12809 whole entry): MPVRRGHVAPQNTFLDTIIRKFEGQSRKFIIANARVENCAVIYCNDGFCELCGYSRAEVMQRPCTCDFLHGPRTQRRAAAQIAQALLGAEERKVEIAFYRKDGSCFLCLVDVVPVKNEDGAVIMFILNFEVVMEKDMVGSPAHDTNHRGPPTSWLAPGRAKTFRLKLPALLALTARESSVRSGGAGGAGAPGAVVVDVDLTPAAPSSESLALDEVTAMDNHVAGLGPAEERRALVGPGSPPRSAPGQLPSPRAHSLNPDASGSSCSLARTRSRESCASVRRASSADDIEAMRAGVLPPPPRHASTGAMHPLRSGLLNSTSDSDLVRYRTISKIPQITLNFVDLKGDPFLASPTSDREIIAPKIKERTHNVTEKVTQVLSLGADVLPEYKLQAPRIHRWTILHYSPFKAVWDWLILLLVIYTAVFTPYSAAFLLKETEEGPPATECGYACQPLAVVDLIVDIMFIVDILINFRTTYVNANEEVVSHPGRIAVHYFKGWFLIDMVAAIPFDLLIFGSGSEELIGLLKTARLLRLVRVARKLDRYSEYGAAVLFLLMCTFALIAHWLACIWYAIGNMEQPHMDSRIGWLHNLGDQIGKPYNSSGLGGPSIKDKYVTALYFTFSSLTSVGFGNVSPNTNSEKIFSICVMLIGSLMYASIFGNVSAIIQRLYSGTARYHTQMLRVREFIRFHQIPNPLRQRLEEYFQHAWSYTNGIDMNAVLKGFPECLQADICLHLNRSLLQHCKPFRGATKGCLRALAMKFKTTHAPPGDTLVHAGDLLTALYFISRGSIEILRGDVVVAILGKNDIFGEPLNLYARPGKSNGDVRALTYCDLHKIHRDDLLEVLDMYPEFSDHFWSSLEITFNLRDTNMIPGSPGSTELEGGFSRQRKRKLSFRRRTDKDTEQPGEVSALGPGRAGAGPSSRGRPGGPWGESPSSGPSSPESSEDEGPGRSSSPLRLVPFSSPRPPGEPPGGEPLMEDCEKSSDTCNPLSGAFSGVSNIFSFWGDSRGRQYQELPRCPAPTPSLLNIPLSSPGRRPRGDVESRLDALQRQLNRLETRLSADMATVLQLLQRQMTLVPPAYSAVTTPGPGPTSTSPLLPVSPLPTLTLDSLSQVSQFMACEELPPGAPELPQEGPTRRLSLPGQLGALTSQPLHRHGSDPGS

For `O=C(Nc1ccc(Cl)cc1Cl)c1cn[nH]n1`, the inhibition at 10 µM (CYP2B6) was 93%, the IC50 (Cytochrome P450 2C8 [1]) was “Not Active” and the “inhibition (INH)” value (Cytochrome P450 2C8 [2]) was “Not Active”. The IC50 (Cytochrome P450 2C9) was 500 nM, the IC50 (Cytochrome P450 2C19) was 1400 nM and the IC50 (Cytochrome P450 2D6) was greater than 100000 nM. The inhibition at 10 µM (CYP2E1) was 10%, the IC50 (Cytochrome P450 3A4) was 58100 nM and the Activity (Escherichia coli) was “Non-toxic”. For the same compound, the fraction unbound [3] was less than 0.01, the “inhibition (INH)” value [4] was “Not Active” and the IC50 [5] was “Not Active”. For the same compound, the inhibition [6] was 42%, the inhibition [7] was less than 50% and the inhibition [8] was 4%. The inhibition [9] was 10%, the Imax [10] was 79% and the IC50 [11] was 24000 nM. For the same compound, the IC50 [12] was 2400 nM, the IC50 [13] was 78 nM and the solubility [14] was 24.3 µg/mL (≈ 94.5 µM). For the same compound, the solubility [15] was 83.6 µg/mL (≈ 325 µM), the solubility [16] was greater than 287 µg/mL and the half-life [17] was greater than 1.67 h. For the same compound, the microsomal CLint [18] was less than 1 µL/min/mg, the permeability (Caco-2) was “permeable” and the IC50 (Cytochrome P450 1A2) was 21600 nM.
